Bridge positions count the residues as written; N and C are the ends. Peptide text beside a SMILES is read from it.

The nature of the assay: Inhibition of human PD-1 expressed in rat PBMCs/human PD-L1 expressed in MDA-MB-231 cells protein-protein interaction assessed as increase in PBMCs proliferation.

Usually EC50 stands for the concentration needed to bring the measured effect to its halfway point. In the case of `CC[C@H](C)[C@@H]1NC(=O)[C@H](CC(C)C)NC(=O)[C@H](Cc2ccccc2)NC(=O)CSC[C@@H](C(=O)NCC(N)=O)NC(=O)[C@H](CCCNC(=N)N)NC(=O)[C@H](Cc2ccccc2)NC(=O)[C@H](C(C)C)NC(=O)[C@H](CCCNC(=N)N)NC(=O)[C@H](CC(=O)O)NC(=O)[C@H](CCCNC(=N)N)NC(=O)[C@H]([C@@H](C)CC)NC(=O)[C@H](C(C)C)NC1=O` ({CH2CO}-FLIVIRDRVFRCG-NH2; thioether N-12), the EC50 was 0.41 nM.

Values taken from BindingDB's records for PubMed 31761384 (China Pharmaceutical University, 2020).
